Reference: US20080280879A1, “SUBSTITUTED HETEROCYCLIC DERIVATIVES AND THEIR PHARMACEUTICAL USE AND COMPOSITIONS” (priority 2007, published 2008)
Values after ≈ are worked out from the molar mass of the structure shown.

Tests used:
Assay type in all cases: cell-based, Staphylococcus aureus
Staph aureus 1095 MRSA = assay: MIC, microtiter broth dilution (CLSI M7-A7), Assay 1, Table 12 column A, no serum; conditions: Assay 1, no serum; for MIC: Staphylococcus aureus, MRSA
How it was run: (§1)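 Broth microdilution in microtiter trays per CLSI M7-A7, interpreted per M100-S16; MIC (μg/ml) is the lowest concentration preventing macroscopically visible growth. Compounds were dissolved in DMSO at 10 mg/ml. Serum-containing runs used Mueller-Hinton Broth with 50% pooled inactivated human serum; repeated runs are reported as geometric means.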

Staph aureus 1146 [1] = assay: MIC, microtiter broth dilution (CLSI M7-A7), Assay 1, Table 12 column B, no serum; conditions: for MIC: Staphylococcus aureus, 1146, Staph aureus 1146, Assay 1, no serum; for MIC, column B: Staph aureus 1146, Assay 1, no serum
How it was run: as §1

Staph aureus 1146 [2] = assay: MIC in Mueller-Hinton Broth with 50% pooled inactivated human serum, Assay 1, Table 12; conditions: for MIC: Staphylococcus aureus, 1146, Staph aureus 1146, Assay 1, 50% human serum, read-out: MIC, column C; for MIC, column C: Staph aureus 1146, Assay 1, 50% human serum
How it was run: as §1

Staph aureus 2811 = assay: MIC, microtiter broth dilution (CLSI M7-A7), Assay 1, Table 12 column D, no serum; conditions: for MIC: Staphylococcus aureus, 2811, Staph aureus 2811, Assay 1, no serum; for MIC, column D: Staph aureus 2811, Assay 1, no serum
How it was run: as §1

Staph aureus 2812 = assay: MIC, microtiter broth dilution (CLSI M7-A7), Assay 1, Table 12 column E, no serum; conditions: for MIC: Staphylococcus aureus, 2812, Staph aureus 2812, Assay 1, no serum; for MIC, column E: Staph aureus 2812, Assay 1, no serum
How it was run: as §1

| SMILES | MIC (Staph aureus 1095 MRSA) [µg/mL] | MIC (Staph aureus 1146 [1]) [µg/mL] | MIC (Staph aureus 1146 [2]) [µg/mL] | MIC (Staph aureus 2811) [µg/mL] | MIC (Staph aureus 2812) [µg/mL] | MIC, column A (Staph aureus 1095 MRSA) [µg/mL] | MIC, column B (Staph aureus 1146 [1]) [µg/mL] | MIC, column C (Staph aureus 1146 [2]) [µg/mL] | MIC, column D (Staph aureus 2811) | MIC, column E (Staph aureus 2812) |
| --- | --- | --- | --- | --- | --- | --- | --- | --- | --- | --- |
| COc1ccc2ncc(F)c(CCCC3(C(=O)O)CCN(C4CC(c5nc(C)no5)C4)CC3)c2c1 (centres unmarked) [Example 98, 4-[3-(3-fluoro-6-methoxyquinolin-4-yl)propyl]-1-[3-(3-methyl-1,2,4-oxadiazol-5-yl)cyclobutyl]piperidine-4-carboxylic acid] | 4 (≈ 8.29 µM) | 2 (≈ 4.14 µM) | 64 (≈ 133 µM) | 2 (≈ 4.14 µM) | 4 (≈ 8.29 µM) | – | – | – | – | – |
| COC(=O)[C@H]1CN(C2CC(c3nnc(C)o3)C2)CC[C@H]1CCC(O)c1ccnc2ccc(OC)cc12 (stereo partly drawn) [Example 99, methyl (3R,4R)-4-[3-hydroxy-3-(6-methoxyquinolin-4-yl)propyl]-1-[3-(5-methyl-1,3,4-oxadiazol-2-yl)cyclobutyl]piperidine-3-carboxylate] | 64 (≈ 129 µM) | 16 (≈ 32.3 µM) | > 64 | 64 (≈ 129 µM) | > 64 | – | – | – | – | – |
| COc1ccc2ncc(Cl)c(CCNC3(C(=O)O)CCN(C4CC(c5ccccc5)C4)CC3)c2c1 (centres unmarked) [Example 100, 4-{[2-(3-chloro-6-methoxyquinolin-4-yl)ethyl]amino}-1-(3-phenylcyclobutyl)piperidine-4-carboxylic acid] | 0.5 (≈ 1.01 µM) | 0.5 (≈ 1.01 µM) | > 64 | 0.25 (≈ 0.506 µM) | 0.5 (≈ 1.01 µM) | – | – | – | – | – |
| COc1ccc2ncc(Cl)c(CCNC3CCN(C4CC(c5ccccc5)C4)C(C(=O)O)C3)c2c1 (centres unmarked) [Example 101, (2,4)-4-{[2-(3-chloro-6-methoxyquinolin-4-yl)ethyl]amino}-1-(3-phenylcyclobutyl)piperidine-2-carboxylic acid] | – | – | – | – | – | 0.125 (≈ 0.253 µM) | 0.125 (≈ 0.253 µM) | 2 (≈ 4.05 µM) | <=.0625 μg/ml | <=.0625 μg/ml |
| COc1ccc2nccc(C(O)CC[C@@H]3CCN(C4CC(c5nc(C)no5)C4)C[C@@H]3C(=O)O)c2c1 (stereo partly drawn) [Example 102, (3R,4R)-4-[3-hydroxy-3-(6-methoxyquinolin-4-yl)propyl]-1-[3-(3-methyl-1,2,4-oxadiazol-5-yl)cyclobutyl]piperidine-3-carboxylic acid] | 16 (≈ 33.3 µM) | 16 (≈ 33.3 µM) | 64 (≈ 133 µM) | 8 (≈ 16.6 µM) | 16 (≈ 33.3 µM) | – | – | – | – | – |
| COc1ccc2nccc(C(O)CC[C@@H]3CCN(C4CC(Cc5ccccc5)C4)C[C@@H]3C(=O)O)c2c1 (stereo partly drawn) [Example 103, (3R,4R)-1-(3-benzylcyclobutyl)-4-[3-hydroxy-3-(6-methoxyquinolin-4-yl)propyl]piperidine-3-carboxylic acid] | 0.5 (≈ 1.02 µM) | 0.25 (≈ 0.512 µM) | 4 (≈ 8.19 µM) | 0.25 (≈ 0.512 µM) | 0.25 (≈ 0.512 µM) | – | – | – | – | – |
| COc1ccc2nccc(C(O)CC[C@@H]3CCN(C4CC(Oc5ccccn5)C4)C[C@@H]3C(=O)O)c2c1 (stereo partly drawn) [Example 104, (3R,4R)-4-[3-hydroxy-3-(6-methoxyquinolin-4-yl)propyl]-1-[3-(pyridin-2-yloxy)cyclobutyl]piperidine-3-carboxylic acid] | > 64 | > 64 | > 64 | > 64 | > 64 | – | – | – | – | – |
| COC(=O)[C@H]1CN(C2CC(c3cc(C)no3)C2)CC[C@H]1CCC(O)c1ccnc2ccc(OC)cc12 (stereo partly drawn) [Example 105, methyl (3R,4R)-4-[3-hydroxy-3-(6-methoxyquinolin-4-yl)propyl]-1-[3-(3-methylisoxazol-5-yl)cyclobutyl]piperidine-3-carboxylate] | 1 (≈ 2.03 µM) | 2 (≈ 4.05 µM) | > 64 | 2 (≈ 4.05 µM) | 2 (≈ 4.05 µM) | – | – | – | – | – |
| COc1ccc2ncc(F)c(CCCC3(C(=O)O)CCN(C4CC(c5ccccc5)C4)CC3)c2n1 (centres unmarked) [Example 106, 4-(3-(3-fluoro-6-methoxy-1,5-naphthyridin-4-yl)propyl)-1-(3-phenylcyclobutyl)piperidine-4-carboxylic acid] | ≤ 0.0625 | ≤ 0.0625 | 32 (≈ 67 µM) | ≤ 0.0625 | ≤ 0.0625 | – | – | – | – | – |
| COc1ccc2nccc(CCCC3(C(=O)O)CCN(CC4CC4c4ccccc4)CC3)c2c1 (centres unmarked) [Example 107, 4-[3-(6-methoxyquinolin-4-yl)propyl]-1-{[(1,2)-2-phenylcyclopropyl]methyl}piperidine-4-carboxylic acid] | – | – | – | – | – | 64 (≈ 140 µM) | 64 (≈ 140 µM) | >64 | 64 µg/mL (≈ 140 µM) | 16 µg/mL (≈ 34.9 µM) |
| COc1ccc2ncc(Cl)c(CCCC3(C(=O)O)CCN(C4CC(c5ccccc5)C4)CC3)c2c1 (centres unmarked) [Example 108, 4-[3-(3-chloro-6-methoxyquinolin-4-yl)propyl]-1-(3-phenylcyclobutyl)piperidine-4-carboxylic acid] | ≤ 0.0625 | ≤ 0.0625 | 64 (≈ 130 µM) | ≤ 0.0625 | ≤ 0.0625 | – | – | – | – | – |
| COc1ccc2ncc(Cl)c(CCCC3(C(=O)O)CCN(C4CN(c5ccccn5)C4)CC3)c2c1 [Example 126, 4-(3-(3-chloro-6-methoxyquinolin-4-yl)propyl)-1-(1-(pyridin-2-yl)azetidin-3-yl)piperidine-4-carboxylic add] | – | – | – | – | – | >64 | 8 (≈ 16.2 µM) | >64 | 2 µg/mL (≈ 4.04 µM) | 4 µg/mL (≈ 8.08 µM) |
| COc1ccc2nccc(C(O)CC[C@@H]3CCN(C4CN(Cc5ccccn5)C4)C[C@@H]3C(=O)O)c2c1 (stereo partly drawn) [Example 127, (3R,4R)-4-(3-hydroxy-3-(6-methoxyquinolin-4-yl)propyl)-1-(1-(pyridine-2-ylmethyl)azetidin-3-yl)piperdine-3-carboxylic acid] | – | – | – | – | – | >64 | >64 | >64 | >64 µg/mL | >64 µg/mL |

The next lines start with results.

| MIC (Staph aureus 1095 MRSA) [µg/mL] | MIC (Staph aureus 1146 [1]) [µg/mL] | MIC (Staph aureus 1146 [2]) [µg/mL] | MIC (Staph aureus 2811) [µg/mL] | MIC (Staph aureus 2812) [µg/mL] | SMILES | MIC, column A (Staph aureus 1095 MRSA) [µg/mL] | MIC, column B (Staph aureus 1146 [1]) [µg/mL] | MIC, column C (Staph aureus 1146 [2]) [µg/mL] | MIC, column D (Staph aureus 2811) | MIC, column E (Staph aureus 2812) |
| --- | --- | --- | --- | --- | --- | --- | --- | --- | --- | --- |
| 1 (≈ 1.96 µM) | 0.5 (≈ 0.982 µM) | > 64 | 0.25 (≈ 0.491 µM) | 1 (≈ 1.96 µM) | COc1ccc2ncc(Cl)c(CCCC3(C(=O)O)CCN(C4CC(c5ccccc5)C4)CC3O)c2c1 (centres unmarked) [Example 109, 4-[3-(3-chloro-6-methoxyquinolin-4-yl)propyl]-3-hydroxy-1-(3-phenylcyclobutyl)piperidine-4-carboxylic acid] | – | – | – | – | – |
| > 64 | 32 (≈ 66.6 µM) | > 64 | > 64 | > 64 | COc1ccc2nccc(C(O)CC[C@@H]3CCN(C4CC(c5nnc(C)o5)C4)C[C@@H]3C(=O)O)c2c1 (stereo partly drawn) [Example 110, (3R,4R)-4-[3-hydroxy-3-(6-methoxyquinolin-4-yl)propyl]-1-[3-(5-methyl-1,3,4-oxadiazol-2-yl)cyclobutyl]piperidine-3-carboxylic acid] | – | – | – | – | – |
| 4 (≈ 8.7 µM) | 2 (≈ 4.35 µM) | > 64 | 1 (≈ 2.18 µM) | 1 (≈ 2.18 µM) | COc1ccc2ncnc(CCCC3(C(=O)O)CCN(C4CC(c5ccccc5)C4)CC3)c2c1 (centres unmarked) [Example 111, 4-[3-(6-methoxyquinazolin-4-yl)propyl]-1-(3-phenylcyclobutyl)piperidine-4-carboxylic acid] | – | – | – | – | – |
| 32 (≈ 66.7 µM) | 8 (≈ 16.7 µM) | 64 (≈ 133 µM) | 8 (≈ 16.7 µM) | 16 (≈ 33.4 µM) | COc1ccc2nccc(C(O)CC[C@@H]3CCN(C4CC(c5cc(C)no5)C4)C[C@@H]3C(=O)O)c2c1 (stereo partly drawn) [Example 115, (3R,4R)-4-[3-hydroxy-3-(6-methoxyquinolin-4-yl)propyl]-1-[3-(3-methylisoxazol-5-yl)cyclobutyl]piperidine-3-carboxylic acid] | – | – | – | – | – |
| 2 (≈ 4.36 µM) | 1 (≈ 2.18 µM) | > 64 | 1 (≈ 2.18 µM) | 1 (≈ 2.18 µM) | COc1ccc2ccnc(CCCC3(C(=O)O)CCN(C4CC(c5ccccc5)C4)CC3)c2c1 (centres unmarked) [Example 121, 4-[3-(7-methoxyisoquinolin-1-yl)propyl]-1-(3-phenylcyclobutyl)piperidine-4-carboxylic acid] | – | – | – | – | – |
| 4 (≈ 8.41 µM) | 4 (≈ 8.41 µM) | 16 (≈ 33.6 µM) | 1 (≈ 2.1 µM) | 2 (≈ 4.21 µM) | COc1ccc2nccc([C@@H](O)CNC3CCN([C@H]4C[C@H](c5ccccc5)C4)CC3C(=O)O)c2c1 (stereo partly drawn) [Example 122, 4-{[(2R)-2-hydroxy-2-(6-methoxyquinolin-4-yl)ethyl]amino}-1-(trans-3-phenylcyclobutyl)piperidine-3-carboxylic acid] | – | – | – | – | – |
| 32 (≈ 67.3 µM) | 16 (≈ 33.6 µM) | 32 (≈ 67.3 µM) | 16 (≈ 33.6 µM) | 32 (≈ 67.3 µM) | COc1ccc2nccc([C@@H](O)CNC3CCN([C@H]4C[C@@H](c5ccccc5)C4)CC3C(=O)O)c2c1 (stereo partly drawn) [Example 123, 4-{[(2R)-2-hydroxy-2-(6-methoxyquinolin-4-yl)ethyl]amino}-1-(cis-3-phenylcyclobutyl)piperidine-3-carboxylic acid] | – | – | – | – | – |
| > 64 | > 64 | > 64 | > 64 | > 64 | COc1ccc2nccc(C(O)CC[C@@H]3CCN(C4CN(C5CCOCC5)C4)C[C@@H]3C(=O)O)c2c1 (stereo partly drawn) [Example 128, (3R,4R)-4-[3-hydroxy-3-(6-methoxyquinolin-4-yl)propyl]-1-[1-(tetrahydro-2H-pyran-4-yl)azetidin-3-yl] piperidine-3-carboxylic acid] | – | – | – | – | – |
| > 64 | > 64 | > 64 | > 64 | > 64 | COc1ccc2nccc(C(O)CC[C@@H]3CCN(C4CN(C5CCOC5)C4)C[C@@H]3C(=O)O)c2c1 (stereo partly drawn) [Example 129, (3R,4R)-4-[3-hydroxy-3-(6-methoxyquinolin-4-yl)propyl]-1-[1-(tetrahydrofuran-3-yl)azetidin-3-yl] piperidine-3-carboxylic acid] | – | – | – | – | – |
